Assay results from PubChem BioAssay (NCI).
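The compound was tested at five concentrations on cells cultured in 96-well plates, with a 48-hour exposure period. At the GI50, growth is halved. Definition used: TGI = concentration required for complete inhibition of growth.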

What was measured:
Test in all cases: growth of human tumour cells (NCI), 48 h
786-0 renal = tested on: 786-0 renal
A498 renal = tested on: A498 renal
A549 NSCLC = tested on: A549 NSCLC
ACHN renal = tested on: ACHN renal
BT-549 breast = tested on: BT-549 breast
CAKI-1 renal = tested on: CAKI-1 renal
CCRF-CEM leukemia = tested on: CCRF-CEM leukemia
COLO 205 colon = tested on: COLO 205 colon
DU-145 prostate = tested on: DU-145 prostate
HCC-2998 colon = tested on: HCC-2998 colon
HCT-116 colon = tested on: HCT-116 colon
HCT-15 colon = tested on: HCT-15 colon
HL-60(TB) leukemia = tested on: HL-60(TB) leukemia
HOP-62 NSCLC = tested on: HOP-62 NSCLC
HS 578T breast = tested on: HS 578T breast
HT29 colon = tested on: HT29 colon
IGROV1 ovarian = tested on: IGROV1 ovarian
K-562 leukemia = tested on: K-562 leukemia
KM12 colon = tested on: KM12 colon
LOX IMVI melanoma = tested on: LOX IMVI melanoma
M14 melanoma = tested on: M14 melanoma
MALME-3M melanoma = tested on: MALME-3M melanoma
MCF7 breast = tested on: MCF7 breast
MDA-MB-231 breast = tested on: MDA-MB-231 breast
MDA-MB-435 = tested on: MDA-MB-435
MDA-MB-468 breast = tested on: MDA-MB-468 breast
MOLT-4 leukemia = tested on: MOLT-4 leukemia
NCI-H226 lung = tested on: NCI-H226 lung
NCI-H23 lung = tested on: NCI-H23 lung
NCI-H460 lung = tested on: NCI-H460 lung
NCI-H522 lung = tested on: NCI-H522 lung
OVCAR-3 ovarian = tested on: OVCAR-3 ovarian
OVCAR-4 ovarian = tested on: OVCAR-4 ovarian
OVCAR-5 ovarian = tested on: OVCAR-5 ovarian
OVCAR-8 ovarian = tested on: OVCAR-8 ovarian
RPMI-8226 leukemia = tested on: RPMI-8226 leukemia
RXF 393 renal = tested on: RXF 393 renal
SF-268 CNS = tested on: SF-268 CNS
SF-295 CNS = tested on: SF-295 CNS
SF-539 CNS = tested on: SF-539 CNS
SK-MEL-2 melanoma = tested on: SK-MEL-2 melanoma
SK-MEL-28 melanoma = tested on: SK-MEL-28 melanoma
SK-MEL-5 melanoma = tested on: SK-MEL-5 melanoma
SK-OV-3 ovarian = tested on: SK-OV-3 ovarian
SN12C renal = tested on: SN12C renal
SNB-19 CNS = tested on: SNB-19 CNS
SNB-75 CNS = tested on: SNB-75 CNS
SR leukemia = tested on: SR leukemia
SW-620 colon = tested on: SW-620 colon
T-47D breast = tested on: T-47D breast
TK-10 renal = tested on: TK-10 renal
UACC-257 melanoma = tested on: UACC-257 melanoma
UACC-62 melanoma = tested on: UACC-62 melanoma
UO-31 renal = tested on: UO-31 renal

SMILES: Cn1cc(-c2cc(N)n3nc(-c4c[nH]c5ccc(Br)cc45)cc3n2)c2cc(Br)cnc21
- GI50 (786-0 renal): 1640 nM
- TGI (786-0 renal): 3130 nM
- GI50 (A498 renal): 1550 nM
- TGI (A498 renal): 3420 nM
- GI50 (A549 NSCLC): 1840 nM
- TGI (A549 NSCLC): 3870 nM
- GI50 (ACHN renal): 1660 nM
- TGI (ACHN renal): 3120 nM
- GI50 (BT-549 breast): 2190 nM
- TGI (BT-549 breast): 4360 nM
- GI50 (CAKI-1 renal): 1490 nM
- TGI (CAKI-1 renal): 3770 nM
- GI50 (CCRF-CEM leukemia): 1610 nM
- TGI (CCRF-CEM leukemia): 4260 nM
- GI50 (COLO 205 colon): 1820 nM
- TGI (COLO 205 colon): 3360 nM
- GI50 (DU-145 prostate): 1820 nM
- TGI (DU-145 prostate): 3530 nM
- GI50 (HCC-2998 colon): 1760 nM
- TGI (HCC-2998 colon): 3240 nM
- GI50 (HCT-116 colon): 1910 nM
- TGI (HCT-116 colon): 4250 nM
- GI50 (HCT-15 colon): 1690 nM
- TGI (HCT-15 colon): 3800 nM
- GI50 (HL-60(TB) leukemia): 1790 nM
- TGI (HL-60(TB) leukemia): 4330 nM
- GI50 (HOP-62 NSCLC): 1680 nM
- TGI (HOP-62 NSCLC): 3340 nM
- GI50 (HS 578T breast): 2290 nM
- TGI (HS 578T breast): 5360 nM
- GI50 (HT29 colon): 1970 nM
- TGI (HT29 colon): 3840 nM
- GI50 (IGROV1 ovarian): 1960 nM
- TGI (IGROV1 ovarian): 4110 nM
- GI50 (K-562 leukemia): 1890 nM
- TGI (K-562 leukemia): 5880 nM
- GI50 (KM12 colon): 1590 nM
- TGI (KM12 colon): 3160 nM
- GI50 (LOX IMVI melanoma): 1700 nM
- TGI (LOX IMVI melanoma): 3290 nM
- GI50 (M14 melanoma): 1690 nM
- TGI (M14 melanoma): 3550 nM
- GI50 (MALME-3M melanoma): 1890 nM
- TGI (MALME-3M melanoma): 3520 nM
- GI50 (MCF7 breast): 1800 nM
- TGI (MCF7 breast): 3630 nM
- GI50 (MDA-MB-231 breast): 1780 nM
- TGI (MDA-MB-231 breast): 3540 nM
- GI50 (MDA-MB-435): 1710 nM
- TGI (MDA-MB-435): 3210 nM
- GI50 (MDA-MB-468 breast): 1360 nM
- TGI (MDA-MB-468 breast): 2770 nM
- GI50 (MOLT-4 leukemia): 2110 nM
- TGI (MOLT-4 leukemia): 10600 nM
- GI50 (NCI-H226 lung): 2510 nM
- TGI (NCI-H226 lung): 7340 nM
- GI50 (NCI-H23 lung): 1760 nM
- TGI (NCI-H23 lung): 3600 nM
- GI50 (NCI-H460 lung): 1960 nM
- TGI (NCI-H460 lung): 4030 nM
- GI50 (NCI-H522 lung): 1700 nM
- TGI (NCI-H522 lung): 3560 nM
- GI50 (OVCAR-3 ovarian): 1670 nM
- TGI (OVCAR-3 ovarian): 3130 nM
- GI50 (OVCAR-4 ovarian): 1950 nM
- TGI (OVCAR-4 ovarian): 3930 nM
- GI50 (OVCAR-5 ovarian): 2030 nM
- TGI (OVCAR-5 ovarian): 4440 nM
- GI50 (OVCAR-8 ovarian): 2010 nM
- TGI (OVCAR-8 ovarian): 4220 nM
- GI50 (RPMI-8226 leukemia): 2230 nM
- TGI (RPMI-8226 leukemia): 7800 nM
- GI50 (RXF 393 renal): 1890 nM
- TGI (RXF 393 renal): 3690 nM
- GI50 (SF-268 CNS): 2250 nM
- TGI (SF-268 CNS): 5710 nM
- GI50 (SF-295 CNS): 1880 nM
- TGI (SF-295 CNS): 4290 nM
- GI50 (SF-539 CNS): 1640 nM
- TGI (SF-539 CNS): 3160 nM
- GI50 (SK-MEL-2 melanoma): 1790 nM
- TGI (SK-MEL-2 melanoma): 3740 nM
- GI50 (SK-MEL-28 melanoma): 1820 nM
- TGI (SK-MEL-28 melanoma): 3640 nM
- GI50 (SK-MEL-5 melanoma): 2080 nM
- TGI (SK-MEL-5 melanoma): 4490 nM
- GI50 (SK-OV-3 ovarian): 2540 nM
- TGI (SK-OV-3 ovarian): 7270 nM
- GI50 (SN12C renal): 1720 nM
- TGI (SN12C renal): 3360 nM
- GI50 (SNB-19 CNS): 2150 nM
- TGI (SNB-19 CNS): 4760 nM
- GI50 (SNB-75 CNS): 1460 nM
- TGI (SNB-75 CNS): 3240 nM
- GI50 (SR leukemia): 1930 nM
- TGI (SR leukemia): 5870 nM
- GI50 (SW-620 colon): 1880 nM
- TGI (SW-620 colon): 3740 nM
- GI50 (T-47D breast): 1800 nM
- TGI (T-47D breast): 4330 nM
- GI50 (TK-10 renal): 1780 nM
- TGI (TK-10 renal): 3990 nM
- GI50 (UACC-257 melanoma): 2000 nM
- TGI (UACC-257 melanoma): 4310 nM
- GI50 (UACC-62 melanoma): 1600 nM
- TGI (UACC-62 melanoma): 3070 nM
- GI50 (UO-31 renal): 1620 nM
- TGI (UO-31 renal): 3360 nM
